According to patent publication US4717713A, “Controlled release liquid pharmaceutical” (Research Corporation, priority 1983, dated 1988):

Assay: In vitro dissolution of theophylline from solutions/suspensions (U.S.P. paddle, simulated gastric fluid, 37° C.)
Format: physicochemical
Conditions: Table II; 50 R.P.M.; no polymers present
Experimental: Standard U.S.P. Teflon coated stainless steel paddles and round bottom glass beakers were employed. The desired stirrer speed was maintained by commercial feedback control circuitry (50 RPM is illustrated by way of example). The dissolution medium was 1000 ml of Simulated Gastric Fluid U.S.P. without enzyme in most cases, kept at 37° C. by a water bath with a heat/circulator unit.
Suspension was placed into the filled beaker near the surface by 0.27 cm inner radius glass tube attached by plastic tubing to a three ml disposable syringe. Two ml of suspension was pulled up into the tube, the exterior wiped clean, one ml was extruded into the dissolution medium beneath the surface, and the suspension separated from the glass tube by cutting with a razor blade. The technique produced uniform cylindrical matrices in most cases.
In all cases, the total amount of drug released into the dissolution medium was less than ten percent of that needed to saturate the medium, so that sink conditions were maintained.
A precise volume was withdrawn near the top of the dissolution medium for each sample. The volume ranged from 0.1 ml to 3.0 ml. […]
Standard curves were concentrated for theophylline in simulated gastric fluid USP. Samples were diluted to read within the linear concentration range and absorbance was read at 272 nm using a single beam spectrophotometer.

SMILES: Cn1c(=O)c2[nH]cnc2n(C)c1=O [Theophylline Powder, theophylline]
- T 50% (time for 50% theophylline to dissolve): < 5 min
